#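 1) Cells in 96-well plates. 2) Compound, 48 h, 5 concentrations. 3) Linear interpolation between surrounding doses. 4) Unreached endpoint = highest concentration. Abbreviation: GI50, concentration required for 50% inhibition of growth. TGI denotes the concentration required for complete inhibition of growth.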
# Tests used:
# Test in all cases: NCI-60 cell line screen, 48 h
# U251 CNS = tested on: U251 CNS
# MOLT-4 leukemia = tested on: MOLT-4 leukemia
# HCT-116 colon = tested on: HCT-116 colon
# SK-MEL-2 melanoma = tested on: SK-MEL-2 melanoma
# RPMI-8226 leukemia = tested on: RPMI-8226 leukemia
# UACC-62 melanoma = tested on: UACC-62 melanoma
# SK-MEL-28 melanoma = tested on: SK-MEL-28 melanoma
# SR leukemia = tested on: SR leukemia
# MDA-MB-231 breast = tested on: MDA-MB-231 breast
# TK-10 renal = tested on: TK-10 renal
# HOP-92 NSCLC = tested on: HOP-92 NSCLC
# SK-OV-3 ovarian = tested on: SK-OV-3 ovarian
# T-47D breast = tested on: T-47D breast
# OVCAR-8 ovarian = tested on: OVCAR-8 ovarian
# CCRF-CEM leukemia = tested on: CCRF-CEM leukemia
# UACC-257 melanoma = tested on: UACC-257 melanoma
# MALME-3M melanoma = tested on: MALME-3M melanoma
# SNB-19 CNS = tested on: SNB-19 CNS
# OVCAR-5 ovarian = tested on: OVCAR-5 ovarian
# NCI-H460 lung = tested on: NCI-H460 lung
# NCI/ADR-RES ovarian = tested on: NCI/ADR-RES ovarian
# SK-MEL-5 melanoma = tested on: SK-MEL-5 melanoma
# COLO 205 colon = tested on: COLO 205 colon
# SW-620 colon = tested on: SW-620 colon
# EKVX NSCLC = tested on: EKVX NSCLC
# MDA-MB-468 breast = tested on: MDA-MB-468 breast
# DU-145 prostate = tested on: DU-145 prostate
# SNB-75 CNS = tested on: SNB-75 CNS
# NCI-H522 lung = tested on: NCI-H522 lung
# OVCAR-3 ovarian = tested on: OVCAR-3 ovarian
# BT-549 breast = tested on: BT-549 breast
# M14 melanoma = tested on: M14 melanoma
# PC-3 prostate = tested on: PC-3 prostate
# SF-268 CNS = tested on: SF-268 CNS
# KM12 colon = tested on: KM12 colon
# MDA-MB-435 = tested on: MDA-MB-435
# SN12C renal = tested on: SN12C renal
# HS 578T breast = tested on: HS 578T breast
# ACHN renal = tested on: ACHN renal
# MCF7 breast = tested on: MCF7 breast
# NCI-H23 lung = tested on: NCI-H23 lung
# HOP-62 NSCLC = tested on: HOP-62 NSCLC
# LOX IMVI melanoma = tested on: LOX IMVI melanoma
# HT29 colon = tested on: HT29 colon
# SF-539 CNS = tested on: SF-539 CNS
# NCI-H226 lung = tested on: NCI-H226 lung
# RXF 393 renal = tested on: RXF 393 renal
# A498 renal = tested on: A498 renal
# SF-295 CNS = tested on: SF-295 CNS
# IGROV1 ovarian = tested on: IGROV1 ovarian
# OVCAR-4 ovarian = tested on: OVCAR-4 ovarian
# HCT-15 colon = tested on: HCT-15 colon
# K-562 leukemia = tested on: K-562 leukemia
# 786-0 renal = tested on: 786-0 renal
# HCC-2998 colon = tested on: HCC-2998 colon
# HL-60(TB) leukemia = tested on: HL-60(TB) leukemia
# A549 NSCLC = tested on: A549 NSCLC
# UO-31 renal = tested on: UO-31 renal
# CAKI-1 renal = tested on: CAKI-1 renal
structure (smiles),measurement,setting,value
COc1ccc(N=Nc2c(N)nn3c(-c4cc5cc(Br)ccc5oc4=O)ccnc23)cc1,GI50,U251 CNS,1.89 µM
same,TGI,U251 CNS,4.24 µM
same,GI50,MOLT-4 leukemia,> 100 µM
same,TGI,MOLT-4 leukemia,> 100 µM
same,GI50,HCT-116 colon,3.69 µM
same,TGI,HCT-116 colon,12.4 µM
same,GI50,SK-MEL-2 melanoma,4.01 µM
same,TGI,SK-MEL-2 melanoma,18.2 µM
same,GI50,RPMI-8226 leukemia,10.9 µM
same,TGI,RPMI-8226 leukemia,> 100 µM
same,GI50,UACC-62 melanoma,2.98 µM
same,TGI,UACC-62 melanoma,12.1 µM
same,GI50,SK-MEL-28 melanoma,4.78 µM
same,TGI,SK-MEL-28 melanoma,19 µM
same,GI50,SR leukemia,99.7 µM
same,TGI,SR leukemia,> 100 µM
same,GI50,MDA-MB-231 breast,2.9 µM
same,TGI,MDA-MB-231 breast,10.1 µM
same,GI50,TK-10 renal,7.89 µM
same,TGI,TK-10 renal,24.8 µM
same,GI50,HOP-92 NSCLC,2.48 µM
same,TGI,HOP-92 NSCLC,7.25 µM
same,GI50,SK-OV-3 ovarian,3.67 µM
same,TGI,SK-OV-3 ovarian,10.7 µM
same,GI50,T-47D breast,3.12 µM
same,TGI,T-47D breast,13.5 µM
same,GI50,OVCAR-8 ovarian,2.93 µM
same,TGI,OVCAR-8 ovarian,11.1 µM
same,GI50,CCRF-CEM leukemia,> 100 µM
same,TGI,CCRF-CEM leukemia,> 100 µM
same,GI50,UACC-257 melanoma,7.3 µM
same,TGI,UACC-257 melanoma,32 µM
same,GI50,MALME-3M melanoma,3 µM
same,TGI,MALME-3M melanoma,11.6 µM
same,GI50,SNB-19 CNS,4.05 µM
same,TGI,SNB-19 CNS,16.3 µM
same,GI50,OVCAR-5 ovarian,4.86 µM
same,TGI,OVCAR-5 ovarian,33.8 µM
same,GI50,NCI-H460 lung,2.96 µM
same,TGI,NCI-H460 lung,11.1 µM
same,GI50,NCI/ADR-RES ovarian,3.42 µM
same,TGI,NCI/ADR-RES ovarian,13.1 µM
same,GI50,SK-MEL-5 melanoma,3.56 µM
same,TGI,SK-MEL-5 melanoma,13.6 µM
same,GI50,COLO 205 colon,6.15 µM
same,TGI,COLO 205 colon,52.3 µM
same,GI50,SW-620 colon,5.86 µM
same,TGI,SW-620 colon,59.6 µM
same,GI50,EKVX NSCLC,9.79 µM
same,TGI,EKVX NSCLC,35.5 µM
same,GI50,MDA-MB-468 breast,1.86 µM
same,TGI,MDA-MB-468 breast,6.2 µM
same,GI50,DU-145 prostate,5.43 µM
same,TGI,DU-145 prostate,> 100 µM
same,GI50,SNB-75 CNS,1.73 µM
same,TGI,SNB-75 CNS,5.34 µM
same,GI50,NCI-H522 lung,2.07 µM
same,TGI,NCI-H522 lung,6.43 µM
same,GI50,OVCAR-3 ovarian,3.85 µM
same,TGI,OVCAR-3 ovarian,> 100 µM
same,GI50,BT-549 breast,4.38 µM
same,TGI,BT-549 breast,14.8 µM
same,GI50,M14 melanoma,12.5 µM
same,TGI,M14 melanoma,> 100 µM
same,GI50,PC-3 prostate,4.56 µM
same,TGI,PC-3 prostate,71.5 µM
same,GI50,SF-268 CNS,3.72 µM
same,TGI,SF-268 CNS,20 µM
same,GI50,KM12 colon,4.17 µM
same,TGI,KM12 colon,> 100 µM
same,GI50,MDA-MB-435,7.87 µM
same,TGI,MDA-MB-435,> 100 µM
same,GI50,SN12C renal,3.21 µM
same,TGI,SN12C renal,14.1 µM
same,GI50,HS 578T breast,3.08 µM
same,TGI,HS 578T breast,> 100 µM
same,GI50,ACHN renal,2.52 µM
same,TGI,ACHN renal,7.17 µM
same,GI50,MCF7 breast,3.5 µM
same,TGI,MCF7 breast,16.4 µM
same,GI50,NCI-H23 lung,2.98 µM
same,TGI,NCI-H23 lung,10.1 µM
same,GI50,HOP-62 NSCLC,2.09 µM
same,TGI,HOP-62 NSCLC,5.21 µM
same,GI50,LOX IMVI melanoma,4.72 µM
same,TGI,LOX IMVI melanoma,16.4 µM
same,GI50,HT29 colon,3.51 µM
same,TGI,HT29 colon,> 100 µM
same,GI50,SF-539 CNS,2.54 µM
same,TGI,SF-539 CNS,6.26 µM
same,GI50,NCI-H226 lung,3.72 µM
same,TGI,NCI-H226 lung,14.5 µM
same,GI50,RXF 393 renal,2.34 µM
same,TGI,RXF 393 renal,7 µM
same,GI50,A498 renal,2.64 µM
same,TGI,A498 renal,9.09 µM
same,GI50,SF-295 CNS,2.7 µM
same,TGI,SF-295 CNS,8.53 µM
same,GI50,IGROV1 ovarian,6.28 µM
same,TGI,IGROV1 ovarian,22.8 µM
same,GI50,OVCAR-4 ovarian,3.69 µM
same,TGI,OVCAR-4 ovarian,19.3 µM
same,GI50,HCT-15 colon,4.63 µM
same,TGI,HCT-15 colon,79.8 µM
same,GI50,K-562 leukemia,11.1 µM
same,TGI,K-562 leukemia,> 100 µM
same,GI50,786-0 renal,2.36 µM
same,TGI,786-0 renal,5.9 µM
same,GI50,HCC-2998 colon,4.63 µM
same,TGI,HCC-2998 colon,23.6 µM
same,GI50,HL-60(TB) leukemia,> 100 µM
same,TGI,HL-60(TB) leukemia,> 100 µM
same,GI50,A549 NSCLC,3.7 µM
same,TGI,A549 NSCLC,16.9 µM
same,GI50,UO-31 renal,3.33 µM
same,TGI,UO-31 renal,15.4 µM
same,GI50,CAKI-1 renal,3.47 µM
same,TGI,CAKI-1 renal,15.5 µM

# — PubChem BioAssay (NCI)
